Each compound was assayed against T1, human recombinant mGluR5 (Homo sapiens, UniProt P41594) (assay: Positive modulation of mGluR5, calcium based FLIPR assay). Settings: EC50 of the modulation; HEK 293 cell line expressing human recombinant mGluR5; peak height of Ca release fluorescence signal after glutamate at approximately 5% basal stimulation.
T1 construct: expressed in transfected cells; host or cells: HEK 293 cell line, cultured with tetracycline, hygromycin and geneticin
Protocol: The positive modulation of mGluR5 is measured in a HEK 293 cell line expressing human recombinant mGluR5 and is detected with calcium based FLIPR assay. The cells are cultured with DMEM supplemented with 10% FCS, 2 μg/mL tetracycline, 100 μg/mL hygromycin and 500 μg/mL gneticin. The cell culture media is exchanged for tetracycline-free cell culture media 3-7 days before the assay. One day before the assay the cell culture medium is exchanged to DMEM without glutamine and phenol red and supplemented with 10% FCS, 100 μg/mL hygromycin and 500 μg/mL geneticin. On the assay day, the medium of the subconfluent cultures is removed and the cells are detached by addition of 2.5 ml EDTA (0.02%) per 175 cm2 culture flask for 1 minute. The cells are resuspend in Ringer solution (140 mM NaCl, 5 mM KCl, 2.5 mM CaCl2, 1.5 mM MgCl2, 5 mM Glucose, 10 mM Hepes; adjusted to pH 7.4 with NaOH), pooled and Ringer solution added to adjust the volume to 50 mL. The cell suspension is centrifuged for […] at 1500 U/min (425 g). The supernatant is removed and the cells washed a second time with 50 ml fresh Ringer solution and centrifuged again as before. The supernatant is again removed and the pellet resuspended in Ringer solution to 1,000,000 cells/ml (1×10^6 cells/mL). The cells are plated onto BD BioCoat Poly-D-Lysine 384 well plates (20.000 cells/well; 20 μl/well). The lid covered plates are then incubated until use at 37° C./10% CO2. For dye loading, 20 μl of Calcium-4 assay kit solution (prepared according to the manufacturer's description in Ringer solution) are added to the cells and the plates are incubated for […] 37° C. and then […] at room temperature.
Controls, Compound dilution and assay execution:
Each assay plate contained wells with “high” and “low” controls:
Low controls 1% DMSO/ringer solution+basal glutamate activation (defined as 100% CTL).
High controls 10 μM CDPPB+basal glutamate activation (defined as 200% CTL).
Test compounds are dissolved and diluted in DMSO to 100-fold the desired concentrations. In a second step, the compounds are diluted in Ringer solution such that the compounds are 4-fold more concentrated than the desired final assay concentration. The final DMSO concentration was 1%.
20 μl of each compound solution are then transferred to the assay plate and the Ca2+ kinetic is measured to determine any intrinsic compound activity. After 5 mM incubation in the FLIPR device, the second stimulation with 20 μl of glutamate in Ringer solution (glutamate concentration adjusted to approximately 5% basal stimulation of the maximal possible glutamate effect) is added and the kinetic Ca2+ response of the wells was measured for the modulation effect.
The peak height of the Ca release related fluorescence signal (9-66) is used for the EC50. The EC50 of the modulation is calculated over a nonlinear regression with GraphPad Prism (Table 1).

T1 sequence (P41594 21-1212): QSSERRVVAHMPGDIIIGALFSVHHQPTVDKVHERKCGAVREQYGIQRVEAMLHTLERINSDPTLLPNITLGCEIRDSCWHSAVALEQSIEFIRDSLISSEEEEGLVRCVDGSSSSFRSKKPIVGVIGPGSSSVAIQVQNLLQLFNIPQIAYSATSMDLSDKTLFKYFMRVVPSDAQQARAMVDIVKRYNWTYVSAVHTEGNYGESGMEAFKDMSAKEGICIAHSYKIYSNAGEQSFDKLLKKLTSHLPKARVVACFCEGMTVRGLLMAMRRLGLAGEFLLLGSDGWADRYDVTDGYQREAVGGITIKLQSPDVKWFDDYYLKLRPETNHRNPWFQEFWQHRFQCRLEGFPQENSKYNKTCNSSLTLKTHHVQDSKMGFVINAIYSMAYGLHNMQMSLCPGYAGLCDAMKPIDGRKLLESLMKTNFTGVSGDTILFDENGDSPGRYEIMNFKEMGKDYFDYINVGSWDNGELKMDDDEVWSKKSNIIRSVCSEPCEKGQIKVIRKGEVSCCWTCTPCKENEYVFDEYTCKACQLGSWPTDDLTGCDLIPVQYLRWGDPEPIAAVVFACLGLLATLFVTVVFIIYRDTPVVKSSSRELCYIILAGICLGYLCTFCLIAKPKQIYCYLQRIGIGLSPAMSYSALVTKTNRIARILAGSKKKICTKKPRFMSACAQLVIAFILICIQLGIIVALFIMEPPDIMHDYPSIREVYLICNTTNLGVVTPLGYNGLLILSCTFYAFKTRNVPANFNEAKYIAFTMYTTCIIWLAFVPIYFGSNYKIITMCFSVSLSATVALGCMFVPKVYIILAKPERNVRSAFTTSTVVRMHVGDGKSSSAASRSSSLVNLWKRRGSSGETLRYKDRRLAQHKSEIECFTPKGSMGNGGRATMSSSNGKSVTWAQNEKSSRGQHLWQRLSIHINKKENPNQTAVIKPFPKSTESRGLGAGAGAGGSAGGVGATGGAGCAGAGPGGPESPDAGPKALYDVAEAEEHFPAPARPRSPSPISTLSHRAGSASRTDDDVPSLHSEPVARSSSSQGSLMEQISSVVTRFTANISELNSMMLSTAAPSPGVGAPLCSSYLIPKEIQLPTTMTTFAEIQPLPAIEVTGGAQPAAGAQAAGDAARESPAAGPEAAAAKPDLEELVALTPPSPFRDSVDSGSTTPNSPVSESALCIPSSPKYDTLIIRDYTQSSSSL

Point of comparison: CN1CCOc2cc(-c3cn(CC(=O)N4CCN(c5ncccn5)CC4)c(-c4ccccc4)n3)ccc21 [Example 7.03.11.], EC50 914 nM. Against it:
- COc1cc(N2CCN(C(=O)Cn3cc(-c4ccc(F)c(C)c4)nc3C3CCCCC3)CC2)ncn1 [Example 7.01.09.] — within 1.5-fold, 1320 nM
- O=C(Cn1cc(-c2ccc(F)cc2)nc1-c1ccccc1)N1CCN(c2ncnc3[nH]cnc23)CC1 [Example 7.01.15.] — within 1.5-fold, 858 nM
- O=C(Cn1cc(-c2ccc(F)c(F)c2)nc1-c1ccccc1)N1CCN(c2ncccn2)CC1 [Example 7.03.10.] — 5.7-fold lower, 159 nM
- Cc1cc(-c2cn(CC(=O)N3CCN(c4cccnn4)CC3)c(-c3ccccc3)n2)ccc1F [Example 7.01.04.] — 2.5-fold lower, 363 nM
- COc1cc(-c2cn(CC(=O)N3CCN(c4ncccn4)CC3)c(-c3ccccc3)n2)ccc1C [Example 7.03.12.] — 32-fold lower, 29 nM
- O=C(Cn1cc(-c2ccc(F)cc2)nc1-c1ccc(F)cc1)N1CCN(c2ccccn2)CC1 [Example 7.01.31.] — 3.7-fold lower, 244 nM
- Cc1ccc(-c2cn(CC(=O)N3CCN(c4ncccn4)CC3)c(-c3ccccc3)n2)cc1 [Example 7.03.02.] — 14-fold lower, 67 nM
- Cc1cc(-c2cn(CC(=O)N3CCN(c4ccccn4)CC3)c(-c3ccccc3)n2)ccc1F [Example 7.01.06.] — 12-fold lower, 76 nM
- O=C(Cn1cc(-c2ccc(F)cc2)nc1-c1ccc(F)cc1)N1CCN(c2cccnn2)CC1 [Example 7.01.29.] — within 1.5-fold, 889 nM
- CCOc1cccc(-c2cn(CC(=O)N3CCN(c4ncccn4)CC3)c(-c3ccccc3)n2)c1 [Example 7.03.08.] — 6.1-fold lower, 151 nM
- Cc1cc(-c2cn(CC(=O)N3CCN(c4cccnn4)CC3)c(-c3ccc(F)cc3)n2)ccc1F [Example 7.01.22.] — 6.3-fold lower, 144 nM
- Cc1cc(-c2cn(CC(=O)N3CCN(c4ncncn4)CC3)c(-c3ccc(F)cc3)n2)ccc1F [Example 7.01.24.] — 6.2-fold lower, 147 nM
- COc1ccnc(N2CCN(C(=O)Cn3cc(-c4ccc(F)c(C)c4)nc3-c3ccccc3)CC2)c1 [Example 7.01.02.] — 11-fold lower, 84 nM
- O=C(Cn1cc(-c2cccc(C(F)(F)F)c2)nc1-c1ccccc1)N1CCN(c2ncccn2)CC1 [Example 7.03.14.] — 5-fold lower, 183 nM
- O=C(Cn1cc(-c2cccc(F)c2)nc1-c1ccccc1)N1CCN(c2ncccn2)CC1 [Example 7.03.04.] — 2.3-fold lower, 395 nM
- COc1cc(N2CCN(C(=O)Cn3cc(-c4ccc(F)c(C)c4)nc3-c3ccc(F)cc3)CC2)ncn1 [Example 7.01.18.] — 9.2-fold lower, 99 nM
- O=C(Cn1cc(-c2ccc(F)cc2)nc1-c1ccccc1)N1CCN(c2ccccn2)CC1 [Example 7.01.17.] — 1.7-fold lower, 542 nM
- Cc1cc(-c2cn(CC(=O)N3CCN(c4ncc(F)cn4)CC3)c(-c3ccc(F)cc3)n2)ccc1F [Example 7.01.26.] — 11-fold lower, 83 nM
- O=C(Cn1cc(-c2cccc(Cl)c2)nc1-c1ccccc1)N1CCN(c2ncccn2)CC1 [Example 7.03.13.] — 5.8-fold lower, 158 nM
- O=C(Cn1cc(-c2ccc3c(c2)CCCO3)nc1-c1ccccc1)N1CCN(c2ncccn2)CC1 [Example 7.03.15.] — 15-fold lower, 61 nM
- Cc1cc(-c2cn(CC(=O)N3CCN(c4ccccn4)CC3)c(C3CCCCC3)n2)ccc1F [Example 7.01.11.] — within 1.5-fold, 710 nM
- Cc1cccc(-c2cn(CC(=O)N3CCN(c4ccccn4)CC3)c(-c3ccccc3)n2)c1 [Example 7.01.35.] — 13-fold lower, 73 nM
- Cc1ccc(-c2nc(-c3ccccc3)cn2CC(=O)N2CCN(c3ccccn3)CC2)cc1 [Example 7.02.02.] — 1.8-fold higher, 1640 nM
- O=C(Cn1cc(-c2ccc(F)cc2)nc1-c1ccccc1)N1CCN(c2ncccn2)CC1 [Example 7.03.01., 2-[4-(4-Fluoro-phenyl)-2-phenyl-imidazol-1-yl]-1-(4-pyrimidin-2-yl-piperazin-1-yl)-ethanone] — 3.4-fold lower, 272 nM
- CCOc1ccc(-c2cn(CC(=O)N3CCN(c4ncccn4)CC3)c(-c3ccccc3)n2)cc1 [Example 7.03.06.] — within 1.5-fold, 680 nM
- COc1cnc(N2CCN(C(=O)Cn3cc(-c4ccc(F)c(C)c4)nc3-c3ccc(F)cc3)CC2)nc1 [Example 7.01.25.] — 13-fold lower, 69 nM
- COc1ccnc(N2CCN(C(=O)Cn3cc(-c4ccc(F)c(C)c4)nc3C3CCCCC3)CC2)c1 [Example 7.01.10.] — within 1.5-fold, 737 nM
- Cc1cc(-c2cn(CC(=O)N3CCN(c4ncc(F)cn4)CC3)c(-c3ccccc3)n2)ccc1F [Example 7.01.08.] — 9.4-fold lower, 97 nM
- COc1cc(N2CCN(C(=O)Cn3cc(-c4ccc(F)cc4)nc3-c3ccccc3)CC2)ncn1 [Example 7.01.16.] — within 1.5-fold, 877 nM
- Cc1cccc(-c2cn(CC(=O)N3CCN(c4cccnn4)CC3)c(-c3ccccc3)n2)c1 [Example 7.01.34.] — within 1.5-fold, 858 nM
- COc1ccnc(N2CCN(C(=O)Cn3cc(-c4ccc(F)cc4)nc3-c3ccc(F)cc3)CC2)c1 [Example 7.01.30.] — 5.4-fold lower, 168 nM
- COc1ccnc(N2CCN(C(=O)Cn3cc(-c4cccc(C)c4)nc3-c3ccccc3)CC2)c1 [Example 7.01.33.] — 6.2-fold lower, 148 nM
- Cc1cc(-c2cn(CC(=O)N3CCN(c4ncccn4)CC3)c(C3CCCCC3)n2)ccc1F [Example 7.01.12.] — 2-fold lower, 458 nM
- Cc1cccc(-c2cn(CC(=O)N3CCN(c4ncnc5[nH]cnc45)CC3)c(-c3ccccc3)n2)c1 [Example 7.01.32.] — 7-fold lower, 131 nM
- Cc1cc(-c2cn(CC(=O)N3CCN(c4ncccn4)CC3)c(-c3ccc(F)cc3)n2)ccc1F [Example 7.01.19.] — 29-fold lower, 31 nM
- O=C(Cn1cc(-c2ccccc2)nc1-c1ccccc1)N1CCN(c2ncccn2)CC1 [Example 7.01.01., 2-(2,4-Diphenyl-imidazol-1-yl)-1-(4-pyrimidin-2-yl-piperazin-1-yl)-ethanone] — within 1.5-fold, 1290 nM
- COc1ccc(-c2cn(CC(=O)N3CCN(c4ccccn4)CC3)c(-c3ccccc3)n2)cc1 [Example 7.02.01., 2-[4-(4-Methoxy-phenyl)-2-phenyl-imidazol-1-yl]-1-(4-pyridin-2-yl-piperazin-1-yl)-ethanone] — 2-fold lower, 464 nM
- Cc1ccc(-c2cn(CC(=O)N3CCN(c4ncccn4)CC3)c(-c3ccccc3)n2)cc1Cl [Example 7.03.09.] — 19-fold lower, 48 nM
- O=C(Cn1cc(-c2ccc(F)c(Cl)c2)nc1-c1ccccc1)N1CCN(c2ncccn2)CC1 [Example 7.03.05.] — 11-fold lower, 87 nM
- COc1cc(-c2cn(CC(=O)N3CCN(c4ncccn4)CC3)c(-c3ccccc3)n2)ccc1F [Example 7.03.17.] — 23-fold lower, 40 nM
- Cc1cc(-c2cn(CC(=O)N3CCN(c4ncccn4)CC3)c(-c3ccccc3)n2)ccc1Cl [Example 7.03.03.] — 17-fold lower, 54 nM
- COc1cnc(N2CCN(C(=O)Cn3cc(-c4ccc(F)c(C)c4)nc3-c3ccccc3)CC2)nc1 [Example 7.01.07.] — 17-fold lower, 53 nM
- COc1ccnc(N2CCN(C(=O)Cn3cc(-c4ccc(F)c(C)c4)nc3-c3ccc(F)cc3)CC2)c1 [Example 7.01.23.] — 12-fold lower, 75 nM
- COc1cc(N2CCN(C(=O)Cn3cc(-c4ccc(F)c(C)c4)nc3-c3ccccc3)CC2)ncn1 [Example 7.01.05.] — 5.7-fold lower, 159 nM
- Cc1cc(-c2cn(CC(=O)N3CCN(c4ncccn4)CC3)c(-c3ccccc3)n2)ccc1F [Example 7.01.03.] — 22-fold lower, 41 nM
- CCc1ccc(-c2cn(CC(=O)N3CCN(c4ncccn4)CC3)c(-c3ccccc3)n2)cc1 [Example 7.03.18.] — 12-fold lower, 74 nM
- Cn1cnc2ccc(-c3cn(CC(=O)N4CCN(c5ncccn5)CC4)c(-c4ccccc4)n3)cc21 [Example 7.03.16.] — 1.7-fold higher, 1530 nM
- Cc1cc(-c2cn(CC(=O)N3CCN(c4ncccn4)CC3)c(-c3ccccc3)n2)cc(C)c1F [Example 7.03.07.] — 24-fold lower, 38 nM
- COc1cc(N2CCN(C(=O)Cn3cc(-c4cccc(C)c4)nc3-c3ccccc3)CC2)ncn1 [Example 7.01.36.] — 4.7-fold lower, 196 nM
- Cc1cc(-c2cn(CC(=O)N3CCN(c4ncnc5[nH]cnc45)CC3)c(C3CCCCC3)n2)ccc1F [Example 7.01.13.] — within 1.5-fold, 857 nM
- COc1cc(N2CCN(C(=O)Cn3cc(-c4ccc(F)cc4)nc3-c3ccc(F)cc3)CC2)ncn1 [Example 7.01.27.] — 3.8-fold lower, 238 nM
- Cc1cc(-c2cn(CC(=O)N3CCN(c4ncnc5[nH]cnc45)CC3)c(-c3ccc(F)cc3)n2)ccc1F [Example 7.01.20.] — 13-fold lower, 73 nM
- O=C(Cn1cc(-c2ccc(F)cc2)nc1-c1ccc(F)cc1)N1CCN(c2ncnc3[nH]cnc23)CC1 [Example 7.01.28.] — 3.5-fold lower, 262 nM
- COc1ccnc(N2CCN(C(=O)Cn3cc(-c4ccc(F)cc4)nc3-c3ccccc3)CC2)c1 [Example 7.01.14.] — 3-fold lower, 306 nM

Source: US8846948B2, “Compounds” (Boehringer Ingelheim International GmbH, priority 2011, dated 2014)
